Measurements from US8017637B2, “Inhibitors of cdc phosphatases” (Ipsen Pharma S.A.S., priority 2004, dated 2011).

Experiments:
[1] = biological target: T1, purified recombinant enzyme Cdc25-C (MBP-Cdc25C) (Homo sapiens, UniProt P30307); experiment: Measurement of the phosphatase activity of the purified recombinant enzyme Cdc25C (OMFP dephosphorylation, fluorescence); assay type: biochemical; conditions: OMFP 500 μM, 4 hours at 30° C.
T1 construct: made in house
T1 sequence (P30307 1-473): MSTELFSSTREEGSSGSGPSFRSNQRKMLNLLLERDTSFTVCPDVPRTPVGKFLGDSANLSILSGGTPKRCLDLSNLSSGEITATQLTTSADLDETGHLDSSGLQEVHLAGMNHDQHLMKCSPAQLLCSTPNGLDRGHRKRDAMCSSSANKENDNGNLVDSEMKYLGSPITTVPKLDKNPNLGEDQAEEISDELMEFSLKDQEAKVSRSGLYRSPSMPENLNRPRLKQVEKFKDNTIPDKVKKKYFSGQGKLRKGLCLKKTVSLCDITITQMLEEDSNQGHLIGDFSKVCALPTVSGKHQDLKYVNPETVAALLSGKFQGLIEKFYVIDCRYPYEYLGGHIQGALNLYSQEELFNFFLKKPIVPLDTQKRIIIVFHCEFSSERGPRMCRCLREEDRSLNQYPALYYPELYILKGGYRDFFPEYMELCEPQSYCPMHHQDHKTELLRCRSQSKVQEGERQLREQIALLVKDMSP
Method: i) Measurement of the Phosphatase Activity of the Purified Recombinant Enzyme Cdc25C
The phosphatase activity of the protein MBP-Cdc25C is evaluated by the dephosphorylation of 3-O-methylfluorescein-phosphate (OMFP) to 3-O-methylfluorescein (OMF) with a determination of the fluorescence at 475 nm of the reaction product. This test makes it possible to identify inhibitors of the recombinant enzyme cdc25. The preparation of the fusion protein MBP-Cdc25C is described in the Patent Application PCT WO 01/44467.
The reaction is carried out in 384-well plate format at a final volume of 50 μl. The protein MBP-Cdc25C (prepared as described above) is preserved in the following elution buffer: 20 mM Tris-HCl pH 7.4; 250 mM NaCl; 1 mM EDTA; 1 mM of dithiothreitol (DTT); 10 mM maltose. It is diluted to a concentration of 60 μM in the following reaction buffer: 50 mM Tris-HCl pH 8.2; 50 mM NaCl; 1 mM DTT; 20% glycerol. Measurement of the background noise is carried out with the buffer without the addition of the enzyme. The products are tested at decreasing concentrations starting from 40 μM. The reaction is initiated by the addition of an OMFP solution at 500 μM final (prepared extemporaneously from a 12.5 mM stock solution in 100% DMSO (Sigma #M2629)). After 4 hours at 30° C. in a single-use 384-well plate, the fluorescence measured at OD 475 nm is read using a Victor^2 plate reader (EGG-Wallac). The determination of the concentration inhibiting the enzyme reaction by 50% is calculated from three independent experiments. Only the values contained in the linear part of the sigmoid are retained for linear regression analysis.

[2] = test system: Mia-Paca2 lines (human pancreatic cancer cells); experiment: Anti-proliferative activity, WST1 colorimetric test, Mia-Paca2 cells; assay type: cell-based; conditions: MIA PaCa-2, 96 hours treatment, up to 10 μM, read-out: IC50 on the cell proliferation of the Mia-Paca2 lines
Method: (§1) ii) Characterization of Anti-Proliferative Activity:
(§2) By way of example, the effect of a treatment by the compounds of the examples described previously on two lines of human Mia-Paca2 and DU145 cells will be studied. The cell lines DU145 (human prostate cancer cells) and Mia-PaCa2 (human pancreatic cancer cells) were acquired from the American Tissue Culture Collection (Rockville, Md., USA). The cells placed in 80 μl of Dulbecco's Modified Eagle medium (Gibco-Brl, Cergy-Pontoise, France) completed with 10% foetal calf serum inactivated by heating (Gibco-Brl, Cergy-Pontoise, France), 50,000 units/l of penicillin and 50 mg/l streptomycin (Gibco-Brl, Cergy-Pontoise, France), and 2 mM of glutamine (Gibco-Brl, Cergy-Pontoise, France) were seeded on a 96-well plate on day 0. The cells were treated on day 1 for 96 hours at increasing concentrations of each of the compounds to be tested up to 10 μM. At the end of the of this period, quantification of the cell proliferation is evaluated by a colorimetric test based on the cleavage of the tetrazolium salt WST1 by the mitochondrial dehydrogenases in the viable cells leading to the formation of formazan (Boehringer Mannheim, Meylan, France). These tests are carried out in duplicate with 8 determinations per concentration tested. For each compound to be tested, the values included in the linear part of the sigmoid were retained for linear regression analysis and used in order to estimate the inhibitory concentration IC50. The products are solubilized in dimethylsulphoxide (DMSO) at to 10^−2M and finally used in culture with 0.1% DMSO.

[3] = test system: DU-145 lines (human prostate cancer cells); experiment: Anti-proliferative activity, WST1 colorimetric test, DU145 cells; assay type: cell-based; conditions: 96 hours treatment, up to 10 μM, read-out: IC50 on the cell proliferation of the DU-145 lines
Method: as §1, §2

IC50 [1]	IC50 [2]	IC50 [3]	melting point	Compound
≤ 1 µM	≤ 10 µM	≤ 10 µM	94 to 96 °C	Cc1nc2c(s1)C(=O)C=C(NCCCN(C)CCCNC1=CC(=O)c3sc(C)nc3C1=O)C2=O [Example 1, 5.5′-[(methylimino)bis(propane-3,1-diylimino)]bis(2-methyl-1,3-benzothiazole-4,7-dione)]
≤ 1 µM	≤ 10 µM	≤ 10 µM	188 to 190 °C	Cc1nc2c(s1)C(=O)C=C(NCCN(C)CCNC1=CC(=O)c3sc(C)nc3C1=O)C2=O [Example 2, 5.5′-[(methylimino)bis(ethane-2,1-diylimino)]bis(2-methyl-1,3-benzothiazole-4,7-dione)]
≤ 1 µM	≤ 10 µM	≤ 10 µM		Cc1nc2c(s1)C(=O)C=C(NCCOCCNC1=CC(=O)c3sc(C)nc3C1=O)C2=O [Example 3, 5.5′-[oxybis(ethane-2,1-diylimino)]bis(2-methyl-1,3-benzothiazole-4,7-dione)]
≤ 1 µM	≤ 10 µM	≤ 10 µM		Cc1nc2c(s1)C(=O)C=C(NCCCCCNC1=CC(=O)c3sc(C)nc3C1=O)C2=O [Example 4]
≤ 1 µM	≤ 10 µM	≤ 10 µM	91 to 93 °C	Cc1nc2c(s1)C(=O)C(NCCCN(C)CCCNC1=CC(=O)c3nc(C)sc3C1=O)=CC2=O [Example 5, 6.6′-[(methylimino)bis(propane-3,1-diylimino)]bis(2-methyl-1,3-benzothiazole-4,7-dione)]
≤ 5 µM	≤ 10 µM	≤ 10 µM		Cc1nc2c(s1)C(=O)C(NCCN(C)CCNC1=CC(=O)c3nc(C)sc3C1=O)=CC2=O [Example 6, 6.6′-[(methylimino)bis(ethane-2,1-diylimino)]bis(2-methyl-1,3-benzothiazole-4,7-dione)]
≤ 1 µM	≤ 10 µM	≤ 10 µM		Cc1nc2c(s1)C(=O)C(Br)=C(NCCCN(C)CCCNC1=C(Br)C(=O)c3sc(C)nc3C1=O)C2=O [Example 17, 5.5′-[(methylimino)bis(propane-3,1-diylimino)]bis(6-bromo-2-methyl-1,3-benzothiazole-4,7-dione)]
≤ 5 µM				CN(CCCN(C)C1=CC(=O)c2nc(-c3cc(F)ccc3F)oc2C1=O)CCCN(C)C1=CC(=O)c2nc(-c3cc(F)ccc3F)oc2C1=O [Example 23, 6.6′-{(methylimino)bis[propane-3,1-diyl(methylimino)]}bis[2-(2,5-difluorophenyl)-1,3-benzoxazole-4,7-dione]]
≤ 1 µM	≤ 10 µM		157 to 158 °C	CN(CCCNC1=CC(=O)c2sc(C(=O)N3CCN(C(=O)N4CCOCC4)CC3)nc2C1=O)CCCNC1=CC(=O)c2sc(C(=O)N3CCN(C(=O)N4CCOCC4)CC3)nc2C1=O [Example 27, 5.5′-[(methylimino)bis(propane-3,1-diylimino)]bis(2-{[4-(morpholin-4-ylcarbonyl)piperazin-1-yl]carbonyl}-1,3-benzothiazole-4,7-dione)]
≤ 1 µM	≤ 10 µM		152 to 153 °C	CN(CCCNC1=CC(=O)c2sc(C(=O)N3CCN(C(=O)C4CCCO4)CC3)nc2C1=O)CCCNC1=CC(=O)c2sc(C(=O)N3CCN(C(=O)C4CCCO4)CC3)nc2C1=O (stereo not shown) [Example 28, 5.5′-[(methylimino)bis(propane-3,1-diylimino)]bis(2-{[4-(tetrahydrofuran-2-ylcarbonyl)piperazin-1-yl]carbonyl}-1,3-benzothiazole-4,7-dione)]
≤ 1 µM	≤ 10 µM	≤ 10 µM		Cc1nc2c(s1)C(=O)C=C(NCCCN(C)CCCNC1=CC(=O)c3nc(C(=O)N4CCCC4)sc3C1=O)C2=O [Example 44, 5-({3-[(3-{[4,7-dioxo-2-(pyrrolidin-1-ylcarbonyl)-4,7-dihydro-1,3-benzothiazol-6-yl]amino}propyl)(methyl)amino]propyl}amino)-2-methyl-1,3-benzothiazole-4,7-dione]
≤ 1 µM	≤ 10 µM	≤ 10 µM		COc1ccc(CNC(=O)c2nc3c(s2)C(=O)C=C(NCCCN(C)CCCNC2=CC(=O)c4sc(C)nc4C2=O)C3=O)cc1 [Example 45, N-(4-methoxybenzyl)-5-{[3-(methyl{3-[(2-methyl-4,7-dioxo-4,7-dihydro-1,3-benzothiazol-5-yl)amino]propyl}amino)propyl]amino}-4,7-dioxo-4,7-dihydro-1,3-benzothiazole-2-carboxamide]
≤ 1 µM				COc1ccc2c(c1)CCCN2C(=O)c1nc2c(s1)C(=O)C=C(NCCCN(C)CCCNC1=CC(=O)c3sc(C)nc3C1=O)C2=O [Example 47, 2-[(6-methoxy-3,4-dihydroquinolin-1(2H)-yl)carbonyl]-5-{[3-(methyl{3-[(2-methyl-4,7-dioxo-4,7-dihydro-1,3-benzothiazol-5-yl)amino]propyl}amino)propyl]amino}-1,3-benzothiazole-4,7-dione]
≤ 1 µM	≤ 10 µM	≤ 10 µM		COc1ccc(C(=O)N2CCN(C(=O)c3nc4c(s3)C(=O)C=C(NCCCN(C)CCCNC3=CC(=O)c5sc(C)nc5C3=O)C4=O)CC2)cc1 [Example 48, 2-{[4-(4-methoxybenzoyl)piperazin-1-yl]carbonyl}-5-{[3-(methyl{3-[(2-methyl-4,7-dioxo-4,7-dihydro-1,3-benzothiazol-5-yl)amino]propyl}amino)propyl]amino}-1,3-benzothiazole-4,7-dione]
≤ 1 µM	≤ 10 µM	≤ 10 µM		Cc1nc2c(s1)C(=O)C=C(NCCCN(C)CCCNC1=CC(=O)c3scnc3C1=O)C2=O [Example 50, 5-({3-[{3-[(4,7-dioxo-4,7-dihydro-1,3-benzothiazol-5-yl)amino]propyl}(methyl)amino]propyl}amino)-2-methyl-1,3-benzothiazole-4,7-dione]
≤ 1 µM	≤ 10 µM			Cc1nc2c(s1)C(=O)C=C(NCCCN(C)CCCNC1=CC(=O)c3nc(-c4cc(F)ccc4F)oc3C1=O)C2=O [Example 51, 2-(2,5-difluorophenyl)-6-{[3-(methyl{3-[(2-methyl-4,7-dioxo-4,7-dihydro-1,3-benzothiazol-5-yl)amino]propyl}amino)propyl]amino}-1,3-benzoxazole-4,7-dione]
≤ 1 µM	≤ 10 µM	≤ 10 µM		Cc1nc2c(s1)C(=O)C(NCCCN(C)CCCNC1=CC(=O)c3nc(-c4cc(F)ccc4F)oc3C1=O)=CC2=O [Example 53, 2-(2,5-difluorophenyl)-6-{[3-(methyl{3-[(2-methyl-4,7-dioxo-4,7-dihydro-1,3-benzothiazol-6-yl)amino]propyl}amino)propyl]amino}-1,3-benzoxazole-4,7-dione]
